This is an account of results in the RepoRT retention time repository (doi:10.1007/s11306-014-0638-x).

The series in a line: RP, Waters ACQUITY UPLC HSS T3, 150 × 2.1 mm, 1.8 µm, 40 °C, 0.28 mL/min, estimated dead time 1.2 min; A: water + 0.1% formic acid, pH 3; B: methanol + 0.1% formic acid, pH 3; gradient (min/%B) 0/0 1/0 3/10 18/40 21/100 25.5/100 25.6/0 28/0. To be noted: stereoisomer not certain.
As for `O=C(O)c1ccc(O)c(O)c1` [3,4-dihydroxybenzoic acid], the LC retention time is 7.77 min.
The same measure for `O=C(O)c1cc(O)cc(O)c1` [3,5-dihydroxybenzoic acid]: 7.75 min.
Regarding `O=C(O)c1ccc(O)cc1` [4-hydroxybenzoic acid], the LC retention time was 10.6 min.
For the compound `NC(CCC(=O)NC(CS)C(=O)NCC(=O)O)C(=O)O` [L-glutathione], the LC retention time is 1.7 min.
The result for `CC[C@H](C)[C@H](N)C(=O)O` [L-isoleucine] reads 4.44 min; that for `O=C(O)[C@@H]1CCCN1` [L-proline], 1.51 min.
Consider `O=C(O)[C@H](O)[C@@H](O)C(=O)O` [L-tartaric acid], for which the LC retention time is 1.46 min.
Regarding `N[C@@H](Cc1ccc(O)cc1)C(=O)O` [L-tyrosine], the LC retention time was 4.28 min.
`OCC1OC(Oc2cc(O)cc(C=Cc3ccc(O)c(O)c3)c2)C(O)C(O)C1O` (stereo not given) [astringin]: the LC retention time is 14.2 min.
Turning to `O=C1CC(c2ccc(O)c(O)c2)c2c(cc(O)c3c2OC(c2ccc(O)c(O)c2)C(O)C3)O1` (stereo not given) [caffeic acid+catechin condensation product], the LC retention time is 17.8 min.
Take `O=C(C=Cc1ccc(O)c(O)c1)OC(C(=O)O)C(O)C(=O)O` (stereo not given) [caftaric acid]: the LC retention time was 8.53 min.
As to `OCC1OC(Oc2cc(O)cc(C=Cc3ccc(O)cc3)c2)C(O)C(O)C1O` (stereo not drawn) [cis-piceid], the LC retention time was 18.4 min.
Take `Oc1ccc(/C=C\c2cc(O)cc(O)c2)cc1` [cis-resveratrol]: the LC retention time is 20.4 min.
The result for `CC(O)(CC(=O)O)C(=O)O` (stereo not given) [citramalic acid] reads 4.02 min; that for `O=c1oc2c(O)c(O)cc3c(=O)oc4c(O)c(O)cc1c4c23` [ellagic acid], 20.3 min; that for `Oc1ccc(C2Oc3cc(O)cc(O)c3CC2O)cc1` (stereo not given) [epiafzelechin], 15.6 min.
For the compound `O=C(OC1Cc2c(O)cc(O)cc2OC1c1ccc(O)c(O)c1)c1cc(O)c(O)c(O)c1` (stereo not given) [epicatechin gallate], the LC retention time was 16 min.
Turning to `Oc1cc(O)c2c(c1)OC(c1ccc(O)c(O)c1)C(O)C2` (stereo not given) [epicatechin], the LC retention time was 12.1 min.
With `O=C(OC1Cc2c(O)cc(O)cc2OC1c1cc(O)c(O)c(O)c1)c1cc(O)c(O)c(O)c1` (stereo not given) [epigallo-catechin gallate], the LC retention time was 12.7 min.
Turning to `CCOC(=O)c1cc(O)c(O)c(O)c1` [ethyl gallate], the LC retention time is 15.2 min.
Take `COc1cc(C=CC(=O)OC(C(=O)O)C(O)C(=O)O)ccc1O` (stereo not given) [fertaric acid]: the LC retention time was 11.8 min.
With `COc1cc2ccc(=O)oc2c(OC2OC(CO)C(O)C(O)C2O)c1O` (stereo not given) [fraxin], the LC retention time was 12.6 min.
`Oc1cc(O)c2c(c1)OC(c1cc(O)c(O)c(O)c1)C(O)C2` (stereo not given) [gallocatechin]: the LC retention time was 8.68 min.
The same measure for `COc1ccc(C2CC(=O)c3c(O)cc(O)cc3O2)cc1O` (stereo not given) [hesperetin]: 21.1 min; for `Oc1ccc(C2Oc3cc(O)cc4c3C2c2cc(O)cc(O)c2C(c2ccc(O)cc2)C4C2c3cc(O)cc4c3C(c3cc(O)cc(O)c3C2c2ccc(O)cc2)C(c2ccc(O)cc2)O4)cc1` (stereo not given) [isohopeaphenol]: 10.7 min; for `COc1cc(-c2oc3cc(O)cc(O)c3c(=O)c2OC2OC(CO)C(O)C(O)C2O)ccc1O` (stereo not given) [isorhamnetin 3-glucoside]: 20.5 min.
Regarding `COc1cc(-c2oc3cc(O)cc(O)c3c(=O)c2OC2OC(COC3OC(C)C(O)C(O)C3O)C(O)C(O)C2O)ccc1O` (stereo not given) [isorhamnetin 3-rutinoside], the LC retention time was 20.6 min.
Take `COc1cc(C=Cc2cc(O)cc(OC3OC(CO)C(O)C(O)C3O)c2)ccc1O` (stereo not given) [isorhapontin]: the LC retention time is 17.6 min.
Turning to `O=c1c(OC2OC(CO)C(O)C(O)C2O)c(-c2ccc(O)cc2)oc2cc(O)cc(O)c12` (stereo not given) [kaempferol 3-glucoside], the LC retention time was 20.3 min.
The same measure for `CC1OC(OCC2OC(Oc3c(-c4ccc(O)cc4)oc4cc(O)cc(O)c4c3=O)C(O)C(O)C2O)C(O)C(O)C1O` (stereo not given) [kaempferol 3-rutinoside]: 20.5 min; for `O=c1cc(-c2ccc(O)c(O)c2)oc2cc(OC3OC(CO)C(O)C(O)C3O)cc(O)c12` (stereo not given) [luteolin 7-glucoside]: 19.7 min; for `COC(=O)c1cc(O)c(O)c(O)c1` [methyl gallate]: 10.7 min.
As to `COc1cc(-c2oc3cc(=O)cc4oc(C)cc(c2OC2OC(CO)C(O)C(O)C2O)c43)cc(OC)c1O` (stereo not given) [methylpyrano malvidin 3-glucoside], the LC retention time is 19.7 min.
The same measure for `O=C1CC(c2ccc(O)cc2)Oc2cc(OC3OC(CO)C(O)C(O)C3O)cc(O)c21` (stereo not given) [naringenin 7-glucoside]: 19.5 min; for `O=C1CC(c2ccc(O)cc2)Oc2cc(O)cc(O)c21` (stereo not given) [naringenin]: 21 min; for `O=C(O)C=Cc1ccccc1O` [o-coumaric acid]: 19.7 min.
Consider `COc1cc(-c2oc3cc(=O)cc4oc(O)cc(c2OC2OC(CO)C(O)C(O)C2O)c43)cc(OC)c1O` (stereo not given) [oxovitisin A], for which the LC retention time is 20.7 min.
As for `Oc1ccc(C2c3c(O)cc(O)cc3C3C(c4ccc(O)cc4)c4c(O)cc(O)cc4C23)cc1` (stereo not given) [pallidol], the LC retention time is 17.6 min.
As to `CCOc1ccc(NC(C)=O)cc1` [phenacetin], the LC retention time is 19.4 min.
For the compound `O=C(CCc1ccc(O)cc1)c1c(O)cc(O)cc1O` [phloretin], the LC retention time is 21.1 min.
With `O=C(CCc1ccc(O)cc1)c1c(O)cc(O)cc1OC1OC(CO)C(O)C(O)C1O` (stereo not given) [phloridzin], the LC retention time was 20.2 min.
Turning to `Oc1cc(O)c2c(c1)OC(c1ccc(O)c(O)c1)C(O)C2c1c(O)cc(O)c2c1OC(c1ccc(O)c(O)c1)C(O)C2` (stereo not given) [procyanidin B1], the LC retention time is 9.66 min.
On to `CCC(=O)O` [proprionic acid], for which the LC retention time was 3.95 min.
For the compound `COc1cc(C=Cc2ccc(O)cc2)cc(OC)c1` [pterostilbene], the LC retention time is 21.9 min.
The same measure for `O=c1c(OC2OC(CO)C(O)C(O)C2O)c(-c2ccc(OC3OC(CO)C(O)C(O)C3O)c(O)c2)oc2cc(O)cc(O)c12` (stereo not given) [quercetin 3,4'-diglucoside]: 17.4 min; for `O=c1c(OC2OC(C(O)CO)C(O)C2O)c(-c2ccc(O)c(O)c2)oc2cc(O)cc(O)c12` (stereo not given) [quercetin 3-glucoside]: 20 min.
The same measure for `O=C(O)C1OC(Oc2c(-c3ccc(O)c(O)c3)oc3cc(O)cc(O)c3c2=O)C(O)C(O)C1O` (stereo not given) [quercetin 3-glucuronide]: 19.9 min; for `CC1OC(OCC2OC(Oc3c(-c4ccc(O)c(O)c4)oc4cc(O)cc(O)c4c3=O)C(O)C(O)C2O)C(O)C(O)C1O` (stereo not given) [quercetin 3-rutinoside]: 20 min.
As for `O=c1c(OS(=O)(=O)O)c(-c2ccc(O)c(O)c2)oc2cc(O)cc(O)c12` [quercetin 3-sulfate], the LC retention time was 20.1 min.
As to `O=c1c(O)c(-c2ccc(OC3OC(CO)C(O)C(O)C3O)c(O)c2)oc2cc(O)cc(O)c12` (stereo not given) [quercetin 4'-glucoside], the LC retention time was 20.4 min.
In the case of `O=C(O)C1(O)CC(O)C(O)C(O)C1` (stereo not given) [quinic acid], the LC retention time was 1.58 min.
`O=C(O)CCC(=O)O` [succinic acid]: the LC retention time is 3.94 min.
Turning to `COc1cc(C(=O)O)cc(OC)c1O` [syringic acid], the LC retention time was 13.8 min.
With `O=C1c2c(O)cc(O)cc2OC(c2ccc(O)c(O)c2)C1O` (stereo not given) [taxifolin], the LC retention time was 16.8 min.
Consider `O=C(C=Cc1ccc(O)cc1)OC(C(=O)O)C(O)C(=O)O` (stereo not drawn) [trans coutaric acid], for which the LC retention time was 10.7 min.
In the case of `O=c1cc[nH]c(=O)[nH]1` [uracil], the LC retention time was 2.34 min.
With `O=c1[nH]c(=O)c2[nH]c(=O)[nH]c2[nH]1` [uric acid], the LC retention time was 3.44 min.
For `COc1cc(-c2oc3cc(=O)cc4oc(O)c(C=[OH+])c(c2OC2OC(CO)C(O)C(O)C2O)c43)cc(OC)c1O` (stereo not given) [vitisin A], the LC retention time was 19.3 min.
Regarding `Oc1ccc(C2Oc3ccc(C=Cc4cc(O)cc5c4C(c4cc(O)cc(O)c4)C(c4ccc(O)cc4)O5)cc3C2c2cc(O)cc3c2C(c2cc(O)cc(O)c2)C(c2ccc(O)cc2)O3)cc1` (stereo not given) [vitisin B], the LC retention time was 18.3 min.
The result for `O=c1[nH]c(=O)c2[nH]cnc2[nH]1` [xanthine] reads 3.97 min.
